pEC50: −log10 of the molar value.
What was measured:
hCNGA2 [1] = experiment: Calcium imaging (fura-2) in HEK293 cells expressing hCNGA2 and Or22a; assay type: cell-based, human; details: most prominent near the plasma membrane (Fig. 5d)
Procedure: Free intracellular Ca^2+ concentration ([Ca^2+]i) was determined by fura-2 fluorescence as described (Messutat et al., Cell Calcium 30, 199-211. (2001)). In brief, cells were loaded with fura-2 by incubation in bath solution containing 2 µM fura-2/acetomethylester for 20 min. Free intracellular Ca^2+ concentration ([Ca^2+]i) was determined with the fluorescence ratio method. Excitation of fura-2 at 340 and 380 nm was performed with a monochromator (Polychrome II, T.I.L.L. Photonics, Gräfelfing, Germany) coupled via an epifluorescence condenser into an Axioskop FS microscope (Carl Zeiss, Jena, Germany) with a water immersion objective (LUMPFL 40xW/IR/0.8; Olympus, Hamburg, Germany). […] [Ca^2+]i was calculated according to the equation [Ca^(2 +)]i = Keff (R-Rmin)/(Rmax-R). […] Keff, Rmin, and Rmax were determined using HEK293 cells permeabilized with 2 µM ionomycin and three solutions with different concentrations of free Ca^2+ (Ca^2+ free; 5 mM Ca^2+; 500 nM Ca^2+; the composition of the 500 nM solution was calculated with WEBMAXC v.2.20) (Patton et al., Cell Calcium 35, 427-31 (2004)). […]
Fluorescence images were acquired using a cooled CCD camera controlled by TILLVision 4.0 software (T.I.L.L. Photonics). […] Image pairs were obtained by excitation for 100 ms at 340 nm and 380 nm; background fluorescence was subtracted.

hCNGA2 [2] = experiment: Gs coupling test: hCNGA2 whole-cell current in HEK293 cells; assay type: cell-based, human
Procedure: HEK293 cells were cultured as described by Wicher and colleagues (Wicher et al., J. Biol. Chem. 281, 3227-36 (2006)). In brief, HEK293 cells were cultured at a density of ∼2*10^4 per 35-mm dish and transfected with 1 µg pcDNA3-DOR22a-GFP and 1 µg pcDNA3-DOR83b-GFP (Neuhaus, et al., Nat. Neurosci. 8, 15-17 (2005); DNAs were a generous gift of Dr. E. Neuhaus and Dr. H. Hatt) using Roti-Fect transfection kit (Roth, Karlsruhe, Germany). In some experiments we transfected cells with pcDNA3-DOR22a-GFP or pcDNA3-DOR83b-GFP alone. We also examined the properties of DOR47a, which was cloned, using standard molecular biology methods into a pcDNA3.1(-) expression vector. To test for putative G-protein coupling, cells were transfected with the respective OR-DNA together with 1.5 µg hHCN2/pcDNA3 (provided by M. Biel, Munich, Germany), with 1 µg hKCNQ4/pcDNA3.1 or with 1 µg hCNGA2/pCMV6-XL4 (Origene, Rockville, MD, USA).
Ion currents in HEK293 cells were measured with the patch-clamp technology as described (Wicher et al, J. Biol. Chem. 281, 3227-36 (2006)). In brief, ion currents in HEK293 cells were measured at room temperature using whole-cell patch-clamp with appropriate compensation of series resistance and of capacitive currents. Additional experiments were performed in the outside-out configuration. Current measurements and data acquisition were performed using an EPC9 patch-clamp amplifier controlled by PatchMaster software (both HEKA Elektronik, Lambrecht, Germany). Patch-clamp pipettes were fabricated from borosilicate capillaries. Pipettes for whole-cell recordings had resistances of 2-4 MΩ for excised-patch recordings the pipette resistance was up to 15 MΩ.

## CCCC(=O)OCC [Etb, ethyl butyrate]
hCNGA2 [1]
  [Ca^2+]i: produced an increase in [Ca^2+]i
hCNGA2 [2]; cells expressing Or22a plus Or83b or Or22a alone
  effect on CNGA2 current: concentration-dependent rise in CNGA2 current
hCNGA2 [2]; cells expressing hCNGA2 and Or22a, -80 mV, n = 5
  Hill coefficient of Etb-induced currents: 0.54
hCNGA2 [2]; cells expressing hCNGA2 and Or22a, -80 mV, normalized to controls, n = 5, read-out: EC50 of Etb-induced currents
  pEC50: 8.52
hCNGA2 [2]; cells solely expressing CNGA2, Etb 100 nM, forskolin 10 µM, -80 mV
  response of hCNGA2 current: did not respond
